Measurements: patent US5442064A, “Carboxylic acid derivatives, pharmaceutical compositions containing these compounds and processes for preparing them” (Dr. Karl Thomae GmbH, priority 1992, dated 1995)
Structures can show the parent of a compound that is named as a salt.

How the values were obtained:
mice = test: Tolerability after intravenous administration to mice; format: in vivo; details: 30 mg/kg, three mice in each case
platelet aggregation = test: Inhibition of platelet aggregation (collagen-induced, Born and Cross, platelet-rich plasma of healthy volunteers); format: cell-based; details: Homo sapiens, Platelet, 10 minutes preincubation at 37° C
Description: In order to do this, donor blood is taken from an anticubital vein and anticoagulated with trisodium citrate (final concentration 13 mM). The blood is centrifuged for 10 minutes at 170×g and the supernatant platelet-rich plasma (PRP) is removed. The remaining blood is vigorously centrifuged once more in order to obtain plasma. The PRP is diluted 1:10 with autologous plasma. 750 μl are incubated with 50 μl of physiological saline solution, 100 μl of test substance solution, 50 μl of ^14 C-sucrose (3,700 Bq) and 50 μl of ^3 H-BIBU 52 (final concentration: 5 nM) at ambient temperature for 20 minutes. In order to measure the non-specific binding, 5μl of BIBU 52 (final concentration: 30 μM) are used instead of the test substance. The samples are centrifuged for 20 seconds at 10,000×g and the supernatant is poured off. 100 μl thereof are measured in order to determine the free ligand. The pellet is dissolved in 500 μl of 0.2N NaOH, 450 μl are mixed with 2 ml of scintillator and 25 μl of 5N HCl and measured. The residual plasma remaining in the pellet is determined from the ^14 C-content and the bound ligand is determined from the ^3 H-measurement. After the non-specific binding has been deducted, the pellet activity is plotted against the concentration of the test substance and the concentration for 50% inhibition of binding is determined. 2. Antithrombotic activity The thrombocyte aggregation is measured using the method of Born and Cross (J. Physiol. 170: 397 (1964)) in platelet-rich plasma taken from healthy volunteers. To inhibit coagulation the blood is mixed with 3.14% sodium citrate in a volume ratio of 1:10. The pattern of the decrease in optical density of the platelet suspension is photometrically measured and recorded after the addition of the aggregation-triggering substance. The rate of aggregation is determined from the angle of inclination of the density curve. The point on the curve where there is maximum light transmittance is used to calculate the optical density. The concentration of collagen used is as small as possible but sufficient to produce an irreversible reaction curve. Standard commercial collagen produced by Hormonchemie of Munich is used. Before the addition of the collagen the plasma is incubated for 10 minutes with the substance at 37° C. From the concentration/activity curve an EC50 is determined, which describes the concentration giving a 50% change in the optical density in terms of the inhibition of aggregation.

human thrombocytes = test: Competitive binding of ^3 H-BIBU 52/test substance to human thrombocytes; details: human thrombocytes in plasma; ^3 H-BIBU 52 5 nM; ambient temperature, 20 minutes
Description: 1. Competitive binding of ^3 H-BIBU 52/test substance to human thrombocytes: […] Case 5/1093-FL), which replaces the ^125 I fibrinogen ligand known from the literature and various concentrations of the substance to be tested. The free and bound ligand is separated by centrifuging and quantified by scintillation counting. The inhibition of ^3 H-BIBU 52 binding by the test substance is determined from the measurements obtained. In order to do this, donor blood is taken from an anticubital vein and anticoagulated with trisodium citrate (final concentration 13 mM). The blood is centrifuged for 10 minutes at 170×g and the supernatant platelet-rich plasma (PRP) is removed. The remaining blood is vigorously centrifuged once more in order to obtain plasma. The PRP is diluted 1:10 with autologous plasma. 750 μl are incubated with 50 μl of physiological saline solution, 100 μl of test substance solution, 50 μl of ^14 C-sucrose (3,700 Bq) and 50 μl of ^3 H-BIBU 52 (final concentration: 5 nM) at ambient temperature for 20 minutes. In order to measure the non-specific binding, 5μl of BIBU 52 (final concentration: 30 μM) are used instead of the test substance. The samples are centrifuged for 20 seconds at 10,000×g and the supernatant is poured off. 100 μl thereof are measured in order to determine the free ligand. The pellet is dissolved in 500 μl of 0.2N NaOH, 450 μl are mixed with 2 ml of scintillator and 25 μl of 5N HCl and measured. The residual plasma remaining in the pellet is determined from the ^14 C-content and the bound ligand is determined from the ^3 H-measurement. After the non-specific binding has been deducted, the pellet activity is plotted against the concentration of the test substance and the concentration for 50% inhibition of binding is determined. 2. Antithrombotic activity

[1] = test system: collagen-induced thrombocyte aggregation; test: Collagen-induced thrombocyte aggregation ex vivo after oral administration, Rhesus monkeys; format: in vivo; details: 1 mg/kg, collagen 2 μg/ml
Description: The inhibition of thrombocyte aggregation after oral administration of the test substance is determined ex vivo on Rhesus monkeys. Directly before the oral administration of the test substance suspended in Natrosol, a blood sample is taken from the cubital vein of the animals to provide a reference value. At specified times after the administration of the substance, fresh blood samples are taken and investigated as follows. The whole blood mixed with 3.14% sodium citrate in a ratio by volume of 1:10 is centrifuged at 200×g for 15 minutes. The supernatant, platelet-rich plasma, is carefully removed. From the sediment which is rich in erythrocytes, the platelet-poor plasma is obtained as supernatant,by centrifuging at 4000×g for 10 minutes. The thrombocyte aggregation triggered with collagen (Hormonchemie, Munich; 2 μg/ml final concentration in platelet-rich plasma) in these ex vivo samples is measured photometrically using the method of Born and Cross (J. Physiol. 170, 397 (1964)). The maximum light transmittance of the platelet-rich plasma, measured after collagen stimulation, is compared with the reference value in order to determine the inhibition of aggregation at the various times of blood sampling after the administration of the substance, relative to the reference value.

| Compound | tolerability (animals died) (mice) | EC50 (platelet aggregation) | IC50 (human thrombocytes) | inhibits the collagen-induced thrombocyte aggregation ex vivo (duration) [1] |
| --- | --- | --- | --- | --- |
| CN(C(=O)N1CCN(c2ccc(C(=N)N)cn2)CC1)[C@H]1CC[C@H](C(=O)O)CC1.Cl.Cl [2(8), 1-(5-amidinopyrid-2-yl)-4-[N-(trans-4-carboxycyclohexyl)-N-methyl-aminocarbonyl]-piperazine-dihydrochloride] | no animals died | 60 nM | 27 nM |  |
| Cl.Cl.N=C(N)c1ccc(N2CCN(C(=O)N[C@H]3CC[C@H](C(=O)O)CC3)CC2)nc1 [2(7), 1-(5-amidinopyrid-2-yl)-4-[N-(trans-4-carboxycyclohexyl)-aminocarbonyl]-piperazine-dihydrochloride] | no animals died | 80 nM | 29 nM |  |
| COC(=O)[C@H]1CC[C@H](NC(=O)C2CCN(c3ccc(C(=N)N)cc3)CC2)CC1.Cl [Example 1(24), 1-(4-amidinophenyl)-4-[N-[trans-4-(methoxycarbonyl)-cyclohexyl]-aminocarbonyl]-piperidine-hydrochloride] |  | 220 nM | 4400 nM | more than 4 hours |
| NCc1ccc(N2CCN(C(=O)N[C@H]3CC[C@H](C(=O)O)CC3)CC2)cc1 [Example 3, 1-(4-Aminomethylphenyl)-4-[N-(trans-4-carboxycyclohexyl)-aminocarbonyl]-piperazine] | no animals died | 230 nM | 130 nM |  |
| Cl.Cl.N=C(N)c1ccc(N2CCN(C(=O)N[C@H]3CC[C@H](C(=O)O)CC3)CC2)cc1.O [Example 2, 1-(4-Amidinophenyl)-4-[N-[trans-4-carboxycyclohexyl]aminocarbonyl]-piperazine-dihydrochloride-hydrate] | no animals died | 40 nM | 7.4 nM |  |
| COC(=O)N=C(N)c1ccc(N2CCN(C(=O)N[C@H]3CC[C@H](C(=O)OC)CC3)CC2)cc1 [Example 5, 1-[4-(N-Methoxycarbonyl-amidinc)-phenyl]-4-[N-[trans-4-(methoxycarbonyl)-cyclohexyl]-aminocarbonyl]-piperazine] | no animals died |  |  |  |
| CN(C(=O)N1CCN(c2ccc(C(=N)N)cc2)CC1)[C@H]1CC[C@H](C(=O)OC2CCCCC2)CC1 [7(2), 1-(4-amidinophenyl)-4-[N-[trans-4-(cyclohexyloxy-carbonyl)-cyclohexyl]-N-methyl-aminocarbonyl]-piperazine-dihydrochloride] |  | 360 nM | 2100 nM |  |
